In ChEMBL document CHEMBL1201862, “PubChem BioAssay data set” (2004):
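Protocol summary: plate cells (96-well), add compound at 5 concentrations, incubate 48 h, interpolate endpoints linearly. Here, GI50 denotes the concentration required for 50% inhibition of growth.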 Calls of active or inactive are those of the source. Rule as the data show it: active = GI50 up to about 1.1 µM and inactive = higher.

Tests used:
Assay in all cases: growth of human tumour cells (NCI), 48 h
BT-549 = test system: BT-549
UACC-257 = test system: UACC-257
SF-268 = test system: SF-268
SF-295 = test system: SF-295
MDA-N = test system: MDA-N
HOP-92 = test system: HOP-92
A549 = test system: A549
SK-MEL-28 = test system: SK-MEL-28
Malme-3M = test system: Malme-3M
HCT-116 = test system: HCT-116
HL-60 = test system: HL-60
NCI-H522 = test system: NCI-H522
SNB-75 = test system: SNB-75
K562 = test system: K562
SK-MEL-5 = test system: SK-MEL-5
LOX IMVI = test system: LOX IMVI
MDA-MB-435 = test system: MDA-MB-435
SF-539 = test system: SF-539
Hs-578T = test system: Hs-578T
SK-MEL-2 = test system: SK-MEL-2

Row | Structure (SMILES) | GI50 (BT-549) | GI50 (UACC-257) | GI50 (SF-268) | GI50 (SF-295) | GI50 (MDA-N) | GI50 (HOP-92) | GI50 (A549) | GI50 (SK-MEL-28) | GI50 (Malme-3M) | GI50 (HCT-116) | GI50 (HL-60) | GI50 (NCI-H522) | GI50 (SNB-75) | GI50 (K562) | GI50 (SK-MEL-5) | GI50 (LOX IMVI) | GI50 (MDA-MB-435) | GI50 (SF-539) | GI50 (Hs-578T) | GI50 (SK-MEL-2)
1 | S=C=NC1CCC(c2cc3ccccc3s2)(N2CCCCC2)CC1 (stereo not given) | 2.09 µM (inactive) | 1.73 µM (inactive) | 2.08 µM (inactive) | 2.58 µM (inactive) | 1.77 µM (inactive) | 1.68 µM (inactive) | 3.01 µM (inactive) | 1.6 µM (inactive) | 1.61 µM (inactive) | 1.82 µM (inactive) | 1.31 µM (inactive) | 1.63 µM (inactive) | 1.87 µM (inactive) | 0.0546 µM (active) | 1.56 µM (inactive) | 1.64 µM (inactive) | 1.62 µM (inactive) | 1.95 µM (inactive) | 2.08 µM (inactive) | –
2 | Cc1cn(C2CC(O)C(Cn3nncc3Cn3nc(Br)c(=O)[nH]c3=O)O2)c(=O)[nH]c1=O (stereo not given) | > 100 µM (inactive) | > 100 µM (inactive) | > 100 µM (inactive) | > 100 µM (inactive) | > 100 µM (inactive) | > 100 µM (inactive) | > 100 µM (inactive) | > 100 µM (inactive) | > 100 µM (inactive) | > 100 µM (inactive) | – | > 100 µM (inactive) | – | – | > 100 µM (inactive) | > 100 µM (inactive) | > 100 µM (inactive) | > 100 µM (inactive) | > 100 µM (inactive) | > 100 µM (inactive)
3 | CCOC(=O)c1nc2c3c(ncn2n1)Oc1c(c(-c2ccccc2)nn1-c1ccccc1)C3c1ccc(OC)c(OC)c1 (stereo not given) | 36.3 µM (inactive) | > 100 µM (inactive) | 15.3 µM (inactive) | 23.8 µM (inactive) | > 100 µM (inactive) | 41.1 µM (inactive) | 59.2 µM (inactive) | 49.2 µM (inactive) | > 100 µM (inactive) | 65.2 µM (inactive) | – | > 100 µM (inactive) | 31.3 µM (inactive) | 7.24 µM (inactive) | 78.9 µM (inactive) | > 100 µM (inactive) | > 100 µM (inactive) | 11.9 µM (inactive) | 12.4 µM (inactive) | > 100 µM (inactive)
4 | COc1ccc(-n2c(SC(CN3CCOCC3)CN3CCCC3=O)nc3ccccc3c2=O)cc1 (stereo not given) | > 100 µM (inactive) | > 100 µM (inactive) | > 100 µM (inactive) | > 100 µM (inactive) | > 100 µM (inactive) | > 100 µM (inactive) | 87.7 µM (inactive) | 82.6 µM (inactive) | 91.2 µM (inactive) | > 100 µM (inactive) | 85.9 µM (inactive) | > 100 µM (inactive) | 70.8 µM (inactive) | > 100 µM (inactive) | > 100 µM (inactive) | – | > 100 µM (inactive) | 58.7 µM (inactive) | > 100 µM (inactive) | > 100 µM (inactive)
5 | CCN(CC)CCO/N=C1/C=C2CCC3C(CC[C@@]4(C)C3CC[C@]4(C)O)[C@@]2(C)CC1 (stereo not given in full) | 11.7 µM (inactive) | 4.9 µM (inactive) | 8.09 µM (inactive) | 2.33 µM (inactive) | 2.49 µM (inactive) | 4.9 µM (inactive) | 7.36 µM (inactive) | – | 3.64 µM (inactive) | 4.21 µM (inactive) | – | 2.16 µM (inactive) | 2.89 µM (inactive) | 4.48 µM (inactive) | 12.5 µM (inactive) | 4.1 µM (inactive) | 1.69 µM (inactive) | 3.18 µM (inactive) | 5.12 µM (inactive) | 11.2 µM (inactive)
6 | COC(=O)c1c(OC(C)=O)ccc2c1c1cc3ccccc3c(OC(C)=O)c1n2C | 14.6 µM (inactive) | – | 27.7 µM (inactive) | 40.5 µM (inactive) | 33.8 µM (inactive) | 10.3 µM (inactive) | 19.9 µM (inactive) | 84.5 µM (inactive) | 14.4 µM (inactive) | 15.4 µM (inactive) | 19.3 µM (inactive) | 4.97 µM (inactive) | 4.67 µM (inactive) | 21.4 µM (inactive) | 3.07 µM (inactive) | – | 25.6 µM (inactive) | 17.5 µM (inactive) | 4.43 µM (inactive) | 29.7 µM (inactive)
